As usually defined, the IC50 is the concentration needed to halve the response being measured. A lower IC50 goes with inhibition by little substance.

Consider twelve molecules from patent US20250179047A1, “5-[7-(3,4-DIHYDRO-1H-ISOQUINOLINE-2-CARBONYL)-1,2,3,4 TETRAHYDROISOQUINOLIN-6-YL]-1H-PYRROLE-3-CARBOXAMIDE DERIVATIVES, PHARMACEUTICAL COMPOSITIONS CONTAINING THEM AND THEIR USES AS PRO-APOPTOTIC AGENTS” (LES LABORATOIRES SERVIER, priority 2022, published 2025).

Each structure is given as a SMILES string.

For assay [1], the target named is BCL2 G101V (Homo sapiens, UniProt P10415, G101V). The assay can be described thus: TR-FRET competitive binding assay, BCL2 G101V. The following applies: BCL2 G101V; Ki determined from IC50; read-out: TR_FRET EKI_Bcl2 G101V. In a few lines: (§1)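 Ki derived from IC50 (11-point dilution, 520/495 nm emission ratio) for displacing a fluorescein-labelled PUMA peptide (2 or 20 nM). Target was 0.5 nM E. coli-expressed Halo-tagged BCL2 (1-207) or BCLXL (2-196), terbium-labelled on Halo. Incubation 2 h at 23°C in pH 7.5 Hepes with 150 mM NaCl and 5% DMSO.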
(TR-FRET usually uses a lanthanide donor and a delayed reading to cut background.)

Assay [2] has as its system BCL2 G101V. Briefly: TR-FRET competitive binding assay, BCL2 G101V. Details: species or system human. The settings on record: ratio Ki BCL2 G101V / Ki BCL2 WT. The gist of the method: as §1
A further assay deals with KMS-12-PE Bcl-2 G101V. Briefly: In vitro cytotoxicity CellTiter-Glo 48 h, KMS-12-PE Bcl-2 G101V. Format: cell-based. The following applies: for Ratio (G101V/WT): C50 KMS-12-PE Bcl-2 G101V over C50 KMS-12-PE Bcl-2 WT; for IC50: 48 h, CellTiter-Glo, C50 = concentration needed to reach 50% of the cellular viability. In a few lines:
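Bcl-2 WT- and G101V-expressing KMS-12-PE cells; 48 h treatment at 37 °C, 5% CO2; CellTiter-Glo ATP luminescence; C50 from 11-point curves.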
In general terms: ATP-based viability assays read luminescence as a measure of living cells.

As for `Cc1c(N(C(=O)c2cc(-c3cc4c(cc3C(=O)N3Cc5ccccc5C[C@H]3C)CN(C(=O)Cc3ccc(OCCN5CCOCC5)cc3)CC4)n(C)c2C)c2ccc(O)cc2)cc(C#N)n1C` [Example 21, N-(5-cyano-1,2-dimethyl-1H-pyrrol-3-yl)-N-(4-hydroxyphenyl)-1,2-dimethyl-5-{7-[(3R)-3-methyl-1,2,3,4-tetrahydroisoquinoline-2-carbonyl]-2-(2-{4-[2-(morpholin-4-yl)ethoxy]phenyl}acetyl)-1,2,3,4-tetrahydroisoquinolin-6-yl}-1H-pyrrole-3-carboxamide], on BCL2 G101V [1], the Ki came out at 0.3 nM. In addition, in the assay with BCL2 G101V [2], the “TR_FRET EKI G101V/WT selectivty ratio” value is 3.1. Moreover, the “Ratio (G101V/WT)” value in the assay on KMS-12-PE Bcl-2 G101V came to 4.02. The same molecule registered a concentration for half-maximal inhibition (IC50) with KMS-12-PE Bcl-2 G101V (Homo sapiens, KMS-12-PE) of 0.023 µM.
The corresponding values for `Cc1c(N(C(=O)c2cc(-c3cc4c(cc3C(=O)N3Cc5ccccc5C[C@H]3C)CN(C(=O)Cc3ccc(OCCC5CCOCC5)cc3)CC4)n(C)c2C)c2ccc(O)cc2)cc(C#N)n1C` [Example 27, N-(5-cyano-1,2-dimethyl-1H-pyrrol-3-yl)-N-(4-hydroxyphenyl)-1,2-dimethyl-5-{7-[(3R)-3-methyl-1,2,3,4-tetrahydroisoquinoline-2-carbonyl]-2-(2-{4-[2-(oxan-4-yl)ethoxy]phenyl}acetyl)-1,2,3,4-tetrahydroisoquinolin-6-yl}-1H-pyrrole-3-carboxamide] are 1.2 nM, 1.5, 4.23 and 0.0143 µM.
For the molecule `Cc1c(N(C(=O)c2cc(-c3cc4c(cc3C(=O)N3Cc5ccccc5C[C@H]3CN3CCCCC3)CN(C(=O)Cc3ccc(OCCN5CCOCC5)cc3F)CC4)n(C)c2C)c2ccc(O)cc2)cc(C#N)n1C` [Example 43, N-(5-cyano-1,2-dimethylpyrrol-3-yl)-5-[2-(2-{2-fluoro-4-[2-(morpholin-4-yl)ethoxy]phenyl}acetyl)-7-{[(3S)-3-(piperidin-1-ylmethyl)-3,4-dihydro-1H-isoquinolin-2-yl]carbonyl}-3,4-dihydro-1H-isoquinolin-6-yl]-N-(4-hydroxyphenyl)-1,2-dimethylpyrrole-3-carboxamide], the Ki at BCL2 G101V [1] turned out to be 0.2 nM. Besides, the “TR_FRET EKI G101V/WT selectivty ratio” value in the assay with BCL2 G101V [2] was 5.0. Besides, in the assay with KMS-12-PE Bcl-2 G101V, the “Ratio (G101V/WT)” value is 4.82 and the IC50 turned out to be 0.0232 µM.
For `Cc1c(N(C(=O)c2cc(-c3cc4c(cc3C(=O)N3Cc5ccccc5C[C@H]3C)CN(C(=O)Cc3ccc(N5CCN6CCOC[C@@H]6C5)cc3F)CC4)n(C)c2C)c2ccc(O)cc2)cc(C#N)n1C` [Example 45, 5-[2-(2-{4-[(9aS)-octahydropyrazino[2,1-c][1,4]oxazin-8-yl]-2-fluorophenyl}acetyl)-7-[(3R)-3-methyl-1,2,3,4-tetrahydroisoquinoline-2-carbonyl]-1,2,3,4-tetrahydroisoquinolin-6-yl]-N-(5-cyano-1,2-dimethyl-1H-pyrrol-3-yl)-N-(4-hydroxyphenyl)-1,2-dimethyl-1H-pyrrole-3-carboxamide], the Ki on BCL2 G101V [1] is 0.4 nM. The “TR_FRET EKI G101V/WT selectivty ratio” value with BCL2 G101V [2] is given as 4.8. The “Ratio (G101V/WT)” value in the assay on KMS-12-PE Bcl-2 G101V amounted to 6.47. In the assay with KMS-12-PE Bcl-2 G101V (Homo sapiens, KMS-12-PE), this molecule came in with an IC50 of 0.0324 µM.
The corresponding values for `Cc1c(N(C(=O)c2cc(-c3cc4c(cc3C(=O)N3Cc5ccccc5C[C@H]3C)CN(C(=O)Cc3ccc(CCN5CCC(F)(F)CC5)cc3)CC4)n(C)c2C)c2ccc(O)cc2)cc(C#N)n1C` [Example 51, N-(5-cyano-1,2-dimethylpyrrol-3-yl)-5-[2-(2-{4-[2-(4,4-difluoropiperidin-1-yl)ethyl]phenyl}acetyl)-7-{[(3R)-3-methyl-3,4-dihydro-1H-isoquinolin-2-yl]carbonyl}-3,4-dihydro-1H-isoquinolin-6-yl]-N-(4-hydroxyphenyl)-1,2-dimethylpyrrole-3-carboxamide] are 1 nM, 4.5, 5.07 and 0.0362 µM.
The corresponding values for `COC[C@@H]1Cc2ccccc2CN1C(=O)c1cc2c(cc1-c1cc(C(=O)N(c3ccc(O)cc3)c3cc(C#N)n(C)c3C)c(C)n1C)CCN(C(=O)Cc1ccc(OCCC3CCOCC3)cc1F)C2` [Example 52, N-(5-cyano-1,2-dimethylpyrrol-3-yl)-5-[2-(2-{2-fluoro-4-[2-(oxan-4-yl)ethoxy]phenyl}acetyl)-7-{[(3S)-3-(methoxymethyl)-3,4-dihydro-1H-isoquinolin-2-yl]carbonyl}-3,4-dihydro-1H-isoquinolin-6-yl]-N-(4-hydroxyphenyl)-1,2-dimethylpyrrole-3-carboxamide] are 0.5 nM, 2.3, 4.08 and 0.0139 µM.
The corresponding values for `Cc1c(N(C(=O)c2cc(-c3cc4c(cc3C(=O)N3Cc5ccccc5C[C@H]3C)CN(C(=O)Cc3ccc(OCCN5CCC(F)CC5)cc3)CC4)n(C)c2C)c2ccc(O)cc2)cc(C#N)n1C` [Example 53, N-(5-cyano-1,2-dimethyl-1H-pyrrol-3-yl)-5-[2-(2-{4-[2-(4-fluoropiperidin-1-yl)ethoxy]phenyl}acetyl)-7-[(3R)-3-methyl-1,2,3,4-tetrahydroisoquinoline-2-carbonyl]-1,2,3,4-tetrahydroisoquinolin-6-yl]-N-(4-hydroxyphenyl)-1,2-dimethyl-1H-pyrrole-3-carboxamide] are 0.2 nM, 2.8, 5.12 and 0.0337 µM.
For the molecule `Cc1c(N(C(=O)c2cc(-c3cc4c(cc3C(=O)N3Cc5ccccc5C[C@H]3C)CN(C(=O)Cc3ccc(OCCN5CCSCC5)cc3)CC4)n(C)c2C)c2ccc(O)cc2)cc(C#N)n1C` [Example 55, N-(5-cyano-1,2-dimethyl-1H-pyrrol-3-yl)-N-(4-hydroxyphenyl)-1,2-dimethyl-5-{7-[(3R)-3-methyl-1,2,3,4-tetrahydroisoquinoline-2-carbonyl]-2-(2-{4-[2-(thiomorpholin-4-yl)ethoxy]phenyl}acetyl)-1,2,3,4-tetrahydroisoquinolin-6-yl}-1H-pyrrole-3-carboxamide], on BCL2 G101V [1], the Ki worked out at 0.2 nM. In the assay with BCL2 G101V [2], the “TR_FRET EKI G101V/WT selectivty ratio” value was found to be 2.4. In addition, the “Ratio (G101V/WT)” value with KMS-12-PE Bcl-2 G101V is on record as 4.22. This molecule also had an IC50 in the assay with KMS-12-PE Bcl-2 G101V (Homo sapiens, KMS-12-PE) of 0.026 µM.
`Cc1c(N(C(=O)c2cc(-c3cc4c(cc3C(=O)N3Cc5ccccc5C[C@H]3CN3CCCCC3)CN(C(=O)Cc3ccc(OCCC5CCOCC5)cc3)CC4)n(C)c2C)c2ccc(O)cc2)cc(C#N)n1C` [Example 66, N-(5-cyano-1,2-dimethylpyrrol-3-yl)-N-(4-hydroxyphenyl)-1,2-dimethyl-5-[2-(2-{4-[2-(oxan-4-yl)ethoxy]phenyl}acetyl)-7-{[(3S)-3-(piperidin-1-ylmethyl)-3,4-dihydro-1H-isoquinolin-2-yl]carbonyl}-3,4-dihydro-1H-isoquinolin-6-yl]pyrrole-3-carboxamide]: on BCL2 G101V [1], the Ki came to 0.5 nM. Moreover, the “TR_FRET EKI G101V/WT selectivty ratio” value with BCL2 G101V [2] amounted to 5.7. Besides, the “Ratio (G101V/WT)” value in the assay with KMS-12-PE Bcl-2 G101V was found to be 5.46. Besides, in the assay on KMS-12-PE Bcl-2 G101V (Homo sapiens, KMS-12-PE), the IC50 amounted to 0.033 µM.
The corresponding values for `Cc1c(C(=O)N(c2ccc(O)cc2)c2cc(C#N)n(C(F)F)c2C)cc(-c2cc3c(cc2C(=O)N2Cc4ccccc4C[C@H]2CN2CCCCC2)CN(C(=O)Cc2ccc(OCCN4CCOCC4)cc2)CC3)n1C` [Example 77] are 0.3 nM, 5.1, 5.1 and 0.0487 µM.
The corresponding values for `Cc1c(C(=O)N(c2ccc(O)cc2)c2cc(C#N)n(C(F)F)c2C)cc(-c2cc3c(cc2C(=O)N2Cc4ccccc4C[C@H]2CN2CCCCC2)CN(C(=O)Cc2ccc(OCCN4CCOCC4)cc2F)CC3)n1C` [Example 78, N-[5-cyano-1-(difluoromethyl)-2-methylpyrrol-3-yl]-5-[2-(2-{2-fluoro-4-[2-(morpholin-4-yl)ethoxy]phenyl}acetyl)-7-{[(3S)-3-(piperidin-1-ylmethyl)-3,4-dihydro-1H-isoquinolin-2-yl]carbonyl}-3,4-dihydro-1H-isoquinolin-6-yl]-N-(4-hydroxyphenyl)-1,2-dimethylpyrrole-3-carboxamide] are 0.4 nM, 6.8, 5.98 and 0.0299 µM.
Regarding `Cc1c(N(C(=O)c2cc(-c3cc4c(cc3C(=O)N3Cc5ccccc5C[C@H]3CN3CCC[C@H](C)C3)CN(C(=O)Cc3ccc(OCCN5CCOCC5)cc3F)CC4)n(C)c2C)c2ccc(O)cc2)cc(C#N)n1C` [Example 107], the Ki on BCL2 G101V [1] is 0.4 nM. In the assay with BCL2 G101V [2], the “TR_FRET EKI G101V/WT selectivty ratio” value was 4.3. Further, the “Ratio (G101V/WT)” value in the assay with KMS-12-PE Bcl-2 G101V is 4.47. In addition, in the assay with KMS-12-PE Bcl-2 G101V (Homo sapiens, KMS-12-PE), the IC50 was determined as 0.0166 µM.
